In brackets after ≈: the same amount, converted by molar mass.
Assays:
Format in all cases: cell-based
[1] = tested on: Candida albicans ATCC 10231; test: Minimum inhibitory concentration (MIC), further microorganisms; details: Table 8; * = significant inhibition of growth, but not complete inhibition
Outline: (§1)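 Organisms at 1–5×10^6 CFU/ml were diluted 1:100 into CASO broth (bacteria, yeast) or Sabouraud 2% glucose broth (mould) over 1:2 DMSO dilution series of compound. Bacteria and yeast were incubated 48 h at 37 °C and mould 5 days at 28 °C. MIC is the lowest concentration giving ≤20% growth versus control by OD620, in duplicate.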

[2] = tested on: Epidermophyton floccosum DSM 10709; test: as above; details: Table 8; * = significant inhibition of growth, but not complete inhibition
Outline: as §1

[3] = tested on: Staphylococcus aureus ATCC 9144; test: as above; details: Table 8; * = significant inhibition of growth, but not complete inhibition
Outline: as §1

[4] = tested on: Aspergillus niger ATCC 6275; test: as above; details: Table 8; * = significant inhibition of growth, but not complete inhibition
Outline: as §1

[5] = tested on: Micrococcus luteus ATCC 9341; test: as above; details: Table 8; * = significant inhibition of growth, but not complete inhibition
Outline: as §1

[6] = tested on: S. epidermidis ATCC 12228; test: as above; details: Table 8; * = significant inhibition of growth, but not complete inhibition
Outline: as §1

[7] = tested on: Pseudomonas aeruginosa CIP A-22; test: as above; details: Table 8
Outline: as §1

[8] = tested on: Enterococcus hirae ATCC 10541; test: as above; details: Table 8; * = significant inhibition of growth, but not complete inhibition
Outline: as §1

[9] = tested on: Salmonella choleraesuis ATCC 10708; test: as above; details: Table 8
Outline: as §1

[10] = tested on: Klebsiella pneumonia ATCC 4352; test: as above; details: Table 8; * = significant inhibition of growth, but not complete inhibition
Outline: as §1

[11] = tested on: Trichophyton mentagrophytes ATCC 9533; test: as above; details: Table 8; * = significant inhibition of growth, but not complete inhibition
Outline: as §1

[12] = tested on: Staphylococcus hominis DMS 20328; test: Minimum inhibitory concentration (MIC) in microtitre plates; details: Table 7; 48 hours at 37° C.; MIC = ≦20% growth compared to control
Outline: (§2)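 Compounds in DMSO, 1:2 dilution series; bacteria at 1–5×10^6 CFU/ml diluted 1:100 in CASO broth. Incubation 48 h at 37° C, growth read as OD 620 nm. MIC is the lowest concentration giving ≤20% growth relative to control; duplicates.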

[13] = tested on: Escherichia coli NCTC 8196; test: as above; details: for Minimum inhibitory concentration (MIC) E. coli: Table 7, 48 hours at 37° C., MIC = ≦20% growth compared to control; for Minimum inhibitory concentration (MIC) E. coli NCTC 8196: Table 8, * = significant inhibition of growth, but not complete inhibition
Outline: as §2

| SMILES | Minimum inhibitory concentration (MIC) Candida albicans ATCC 10231 [1] | Minimum inhibitory concentration (MIC) Epidermophyton floccosum DSM 10709 [2] | Minimum inhibitory concentration (MIC) Staphylococcus aureus ATCC 9144 [3] | Minimum inhibitory concentration (MIC) Aspergillus niger ATCC 6275 [4] | Minimum inhibitory concentration (MIC) Micrococcus luteus ATCC 9341 [5] | Minimum inhibitory concentration (MIC) S. epidermidis ATCC 12228 [6] | Minimum inhibitory concentration (MIC) Pseudomonas aeruginosa CIP A-22 [7] | Minimum inhibitory concentration (MIC) Enterococcus hirae ATCC 10541 [8] | Minimum inhibitory concentration (MIC) Klebsiella pneumonia ATCC 4352 [10] | Minimum inhibitory concentration (MIC) Trichophyton mentagrophytes ATCC 9533 [11] | Minimum inhibitory concentration (MIC) S. hominis [12] | Minimum inhibitory concentration (MIC) E. coli [13] | Minimum inhibitory concentration (MIC) E. coli NCTC 8196 [13] | Minimum inhibitory concentration (MIC) Salmonella choleraesuis ATCC 10708 [9] |
| --- | --- | --- | --- | --- | --- | --- | --- | --- | --- | --- | --- | --- | --- | --- |
| Cc1cc(NCCCCCCCCCN)nc(-c2ccccn2)n1 [compound 18] | >60 µg/mL | >60 µg/mL | >60 µg/mL | >60 µg/mL | >60 µg/mL | >60 µg/mL | >60 µg/mL | >60 µg/mL | >60 µg/mL | >60 µg/mL | 120 µg/mL (≈ 366 µM) | >120 µg/mL | >60 µg/mL | >60 µg/mL |
| CCc1c(C)nc(-c2ccccn2)nc1NCCCCCCCCCCCCN [compound 7] | >60 µg/mL | >30 µg/mL | >60 µg/mL | >30 µg/mL | >60 µg/mL | >60 µg/mL | >60 µg/mL | >60 µg/mL | >60 µg/mL | >30 µg/mL | 120 µg/mL (≈ 302 µM) | 120 µg/mL (≈ 302 µM) | >60 µg/mL | >60 µg/mL |

More lines, main results first:

| Minimum inhibitory concentration (MIC) Candida albicans ATCC 10231 [1] | Minimum inhibitory concentration (MIC) Epidermophyton floccosum DSM 10709 [2] | Minimum inhibitory concentration (MIC) Staphylococcus aureus ATCC 9144 [3] | Minimum inhibitory concentration (MIC) Aspergillus niger ATCC 6275 [4] | Minimum inhibitory concentration (MIC) Micrococcus luteus ATCC 9341 [5] | Minimum inhibitory concentration (MIC) S. epidermidis ATCC 12228 [6] | Minimum inhibitory concentration (MIC) Pseudomonas aeruginosa CIP A-22 [7] | Minimum inhibitory concentration (MIC) Enterococcus hirae ATCC 10541 [8] | Minimum inhibitory concentration (MIC) Klebsiella pneumonia ATCC 4352 [10] | Minimum inhibitory concentration (MIC) Trichophyton mentagrophytes ATCC 9533 [11] | Minimum inhibitory concentration (MIC) S. hominis [12] | Minimum inhibitory concentration (MIC) E. coli [13] | Minimum inhibitory concentration (MIC) E. coli NCTC 8196 [13] | SMILES | Minimum inhibitory concentration (MIC) Salmonella choleraesuis ATCC 10708 [9] |
| --- | --- | --- | --- | --- | --- | --- | --- | --- | --- | --- | --- | --- | --- | --- |
| >60 µg/mL | >60 µg/mL | 60 µg/mL (≈ 169 µM) | >60 µg/mL | *15 μg/mL | 60 µg/mL (≈ 169 µM) | >60 µg/mL | >60 µg/mL | >60 µg/mL | >60 µg/mL | 30 µg/mL (≈ 84.4 µM) | 120 µg/mL (≈ 338 µM) | >60 µg/mL | CC(C)c1cc(NCCCCCCCCCN)nc(-c2ccccn2)n1 [compound 42] | >60 µg/mL |
| *60 μg/mL | 60 µg/mL (≈ 141 µM) | *30 μg/mL | >120 µg/mL | 15 µg/mL (≈ 35.3 µM) | *30 μg/mL | >60 µg/mL | 30 µg/mL (≈ 70.6 µM) | >60 µg/mL | >120 µg/mL | 30 µg/mL (≈ 70.6 µM) | 120 µg/mL (≈ 283 µM) | >60 µg/mL | CCCCCCCCCCCCCCCNc1nc(-c2ccccn2)nc(C)c1CC [compound 90] | >60 µg/mL |
| >60 µg/mL | *60 μg/mL | 7.5 µg/mL (≈ 17.7 µM) | >60 µg/mL | 1.0 µg/mL (≈ 2.35 µM) | 3.75 µg/mL (≈ 8.83 µM) | >60 µg/mL | 3.75 µg/mL (≈ 8.83 µM) | >60 µg/mL | >60 µg/mL | 15 µg/mL (≈ 35.3 µM) | >120 µg/mL | >60 µg/mL | CCCCCCCCCCCCCCCNc1cc(C(C)C)nc(-c2ccccn2)n1 [compound 99] | >60 µg/mL |
| *30 μg/mL | >60 µg/mL | *60 μg/mL | >60 µg/mL | 60 µg/mL (≈ 145 µM) | 30 µg/mL (≈ 72.5 µM) | >60 µg/mL | >60 µg/mL | >60 µg/mL | >60 µg/mL | 10 µg/mL (≈ 24.2 µM) | 20 µg/mL (≈ 48.4 µM) | 60 µg/mL (≈ 145 µM) | COCCc1cc(NCCCCCCCCCCCCN)nc(-c2ccccn2)n1 [compound 79] | >60 µg/mL |
